Experimental data: patent publication US20230233537A1, “Compositions and Kits of Parts Comprising N,N-Dimethyltryptamine and Harmine and Their Use in Therapy” (University of Zürich, priority 2020, published 2023)

Assays:
[1] = aqueous solubility of DMT and harmine forms; settings: for solubility: water, 25 °C
[2] = buccal / transmucosal absorption of DMT forms; settings: in vivo
[3] = combined intranasal/buccal study (parenteral pharmahuasca): DMT and harmine concentrations in plasma; settings: for bioavailability (area under the curve; AUC) compared to oral administration: DMT fumarate intranasal, harmine HCl buccal; for variation of peak plasma concentrations (cmax), extensive vs. poor metabolizers, factor: 150 mg buccal harmine HCl, up to 50 mg incremental intranasal DMT fumarate
[4] = local tolerability on nasal or oral mucosa (burning sensation); settings: for burning sensation on nasal application: intranasal
[5] = target: T1, monoamine oxidase A (MAO-A) (Homo sapiens, UniProt P21397); settings: cited from earlier work
T1 sequence (P21397 1-527): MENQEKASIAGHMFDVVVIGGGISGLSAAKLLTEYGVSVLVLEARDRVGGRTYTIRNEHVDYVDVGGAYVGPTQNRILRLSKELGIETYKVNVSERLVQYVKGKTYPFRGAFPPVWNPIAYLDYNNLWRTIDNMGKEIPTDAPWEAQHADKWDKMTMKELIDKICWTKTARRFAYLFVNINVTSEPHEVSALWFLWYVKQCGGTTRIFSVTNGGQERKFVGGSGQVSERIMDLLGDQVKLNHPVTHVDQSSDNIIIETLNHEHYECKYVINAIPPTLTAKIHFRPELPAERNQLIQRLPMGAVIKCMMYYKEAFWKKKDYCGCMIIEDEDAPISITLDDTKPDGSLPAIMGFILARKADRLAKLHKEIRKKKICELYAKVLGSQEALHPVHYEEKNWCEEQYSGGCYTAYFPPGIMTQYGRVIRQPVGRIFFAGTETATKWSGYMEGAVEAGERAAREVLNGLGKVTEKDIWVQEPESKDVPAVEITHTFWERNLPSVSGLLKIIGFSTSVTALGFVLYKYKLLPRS

[6] = target: T2, monoamine oxidase B (MAO-B) (Homo sapiens, UniProt P27338); settings: cited from earlier work
T2 sequence (P27338 1-520): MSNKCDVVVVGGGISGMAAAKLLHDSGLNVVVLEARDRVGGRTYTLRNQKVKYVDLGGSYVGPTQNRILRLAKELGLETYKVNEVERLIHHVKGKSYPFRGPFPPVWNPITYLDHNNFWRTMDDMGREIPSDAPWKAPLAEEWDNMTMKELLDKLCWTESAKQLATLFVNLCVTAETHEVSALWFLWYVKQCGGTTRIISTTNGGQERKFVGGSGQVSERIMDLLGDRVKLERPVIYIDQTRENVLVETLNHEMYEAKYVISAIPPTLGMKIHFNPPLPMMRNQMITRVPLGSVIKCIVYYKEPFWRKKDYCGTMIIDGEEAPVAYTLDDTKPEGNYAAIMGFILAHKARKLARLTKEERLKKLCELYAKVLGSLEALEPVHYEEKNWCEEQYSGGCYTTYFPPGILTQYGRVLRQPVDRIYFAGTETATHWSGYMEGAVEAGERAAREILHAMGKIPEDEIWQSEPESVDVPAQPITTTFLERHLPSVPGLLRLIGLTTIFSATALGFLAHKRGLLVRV

[7] = target: hepatic enzyme CYP2D6 (Homo sapiens, UniProt P10635); settings: cited from earlier work
hepatic enzyme CYP2D6, sequence (P10635 whole entry): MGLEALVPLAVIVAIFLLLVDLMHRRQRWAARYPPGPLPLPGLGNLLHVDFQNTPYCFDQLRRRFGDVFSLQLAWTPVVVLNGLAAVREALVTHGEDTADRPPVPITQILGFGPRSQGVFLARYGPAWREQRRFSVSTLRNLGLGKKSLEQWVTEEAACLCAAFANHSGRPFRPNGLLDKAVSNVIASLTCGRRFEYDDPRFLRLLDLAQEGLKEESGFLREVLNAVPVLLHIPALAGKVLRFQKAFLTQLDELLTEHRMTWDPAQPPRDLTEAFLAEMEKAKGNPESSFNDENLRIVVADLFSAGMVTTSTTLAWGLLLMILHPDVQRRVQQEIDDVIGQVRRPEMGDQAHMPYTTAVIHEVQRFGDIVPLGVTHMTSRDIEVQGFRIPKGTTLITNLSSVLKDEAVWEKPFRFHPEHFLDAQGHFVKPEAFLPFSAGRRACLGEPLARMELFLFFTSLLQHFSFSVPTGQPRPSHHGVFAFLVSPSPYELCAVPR

[8] = peroral pharmahuasca study: DMT and harmine concentrations in plasma; settings: male, human, oral

CN(C)CCc1c[nH]c2ccccc12.O=C(O)/C=C/C(=O)O [DMT fumarate, N,N-dimethyltryptamine fumarate]
solubility (in words) [1]: high
solubility [1]: > 35 mg/mL
transmucosal absorption [2]: efficient
bioavailability (area under the curve; AUC) compared to oral administration [3]: substantially higher

CN(C)CCc1c[nH]c2ccccc12 [DMT, N,N-Dimethyltryptamine]
burning sensation when administered buccally ([4]; buccal, basic corrosion of the oral mucosa): burning sensation
variation of peak plasma concentrations (cmax), extensive vs. poor metabolizers, factor [3]: ~2.3

COc1ccc2c(c1)[nH]c1c(C)nccc12.Cl [harmine HCl, Harmine hydrochloride]
solubility [1]: ≤ 35 mg/mL
burning sensation on nasal application [4]: intense burning sensation
bioavailability (area under the curve; AUC) compared to oral administration [3]: substantially higher

CC(=O)O.COc1ccc2c(c1)[nH]c1c(C)nccc12 [harmine acetate]
solubility [1]: ≤ 35 mg/mL
burning sensation on nasal application [4]: intense burning sensation

COc1ccc2c(c1)[nH]c1c(C)nccc12.O=C(O)CC(O)(CC(=O)O)C(=O)O [harmine citrate]
solubility [1]: ≤ 35 mg/mL
burning sensation on nasal application [4]: intense burning sensation

COc1ccc2c(c1)[nH]c1c(C)nccc12.O=C(O)/C=C/C(=O)O [harmine fumarate]
solubility [1]: ≤ 35 mg/mL
burning sensation on nasal application [4]: intense burning sensation

COc1ccc2c(c1)[nH]c1c(C)nccc12.O=S(=O)(O)O [harmine sulfate]
solubility [1]: ≤ 35 mg/mL
burning sensation on nasal application [4]: intense burning sensation

COc1ccc2c(c1)[nH]c1c(C)nccc12 [harmine, 7-Methoxy-1-methyl-9H-pyrido[3,4-b]indol]
inhibition of MAO-A [5]: reversibly inhibits
inhibition of MAO-B [6]: does not inhibit
degradation by CYP2D6 [7]: mainly degraded
solubility (in words) [1]: very low
Tmax [8]: 1 to 4.5 h
variation of peak plasma concentrations (cmax), extensive vs. poor metabolizers, factor [3]: ~3.2
